These results are taken from US10154955B2, “Compositions including bauhinia, methods of making and using the same in skin anti-aging and other skin applications” (ACCESS BUSINESS GROUP INTERNATIONAL LLC, priority 2016, dated 2018).

Molecules are shown by their SMILES. Converted amounts (≈) assume the structure as drawn. “And” between values parts separate entries of the source, which are not always exact repeats. Equal entries are not always repeated.

Data set [1] in a line: Cell toxicity-CTG in HepG2 cells. It is filed as cell-based. The note with it: human, FIG. 5. As for the experimental part:
On Day 1 of the procedure, Hep G2 [HEPG2] cells were plated on 96-well cell culture plates. To do so, disk was trypsinized and the cell density was determined. The cell slurry was diluted to the required volume at a density of 625,000 cells/ml. 160 ul/well of the cell slurry was dispensed onto assay plates. (100,000 cells per well). The assay plates were incubated overnight at 37 degrees C., 5% CO2 under humidified conditions. On Day 2, the cells were treated with […] and Hydroquinone or Vitamin C as a reference. 200× compounds were prepared in 100% DMSO. Transfer 5 ul 200× compound was transferred to 95 ul completed medium (MEM with 10% FBS), and mixed 5 times. 20 ul 10× compound solution was transferred onto assay plates. The assay plates were incubated at 37 degrees C., 5% CO2 under humidified conditions.

A further data set relates to Hep G2 [HEPG2] cells. The data set is described as follows: Anti-carbonylation assay (protein carbonyl ELISA after H2O2 treatment). Type of data set: cell-based. The note with it: 3 mM H2O2 4 hr, replicate values. The protocol:
The purpose of this experiment was to test […] on anti-carbonylation assay using Hep G2 [HEPG2] (ATCC#HB-8065) cell line. The carbonylation process is related to protein degeneration and is similar to oxidation and glycation. On Day 1 of the procedure, Hep G2 [HEPG2] cells were plated on 96-well cell culture plates. To do so, disk was trypsinized and the cell density was determined. The cell slurry was diluted to the required volume at a density of 625,000 cells/ml. 160 ul/well of the cell slurry was dispensed onto assay plates. (100,000 cells per well). The assay plates were incubated overnight at 37 degrees C., 5% CO2 under humidified conditions. On Day 2, the cells were treated with […] and Hydroquinone or Vitamin C as a reference. 200× compounds were prepared in 100% DMSO. Transfer 5 ul 200× compound was transferred to 95 ul completed medium (MEM with 10% FBS), and mixed 5 times. 20 ul 10× compound solution was transferred onto assay plates. The assay plates were incubated at 37 degrees C., 5% CO2 under humidified conditions. Day 3 included treatment with H2O2. 30 mM H2O2 solution was prepared and 20 ul/well of H2O2 solution was dispensed onto assay plates (H2O2 final conc. 3 mM). The assay plates were incubated for 4 hr at 37 degrees C., 5% CO2 under humidified conditions. Following the incubation, the cell culture medium was discarded and cells once washed once with PBS. 60 ul PBS was added onto assay plate, frozen at -80° C. Frozen samples were recovered 3 times. […] The liquid supernatant was then transferred to compound plate. 5 ul of each cell lysis was obtained and the protein concentration was tested. The protein concentration was adjusted to 5 μg/ml with PBS and reduced BSA (total protein conc. 10 μg/ml), and mixed 5 times. 100 uL of the 5 ug/ml samples was then transferred onto the 96-well Protein Binding Plate, and incubated in 4° C. overnight. To perform ELISA assay on Day 5, the wells were washed 3 times with 250 μL PBS per well and excess wash solution removed. 100 μL of the 0.04 mg/ml DNPH Working Solution was added and the plates were incubated for 45 minutes at room temperature in the dark. The plates were then washed 5 times with 250 μL of PBS/Ethanol (1:1, v/v) with incubation on an orbital shaker for 5 minutes. Next, the plates were washed 2 times with 250 μL of PBS. 200 μL of Blocking Solution was added per well and the plates were incubated for 2 hours at room temperature on an orbital shaker, and then washed 3 times with 250 μL of 1× Wash Buffer with thorough aspiration between each wash. 100 μL anti-DNP antibody was added and the plates were incubated for 1 hour at room temperature on an orbital shaker. Next, the strip wells were washed 3 times (1× wash buffer), 100 μL of the diluted HRP conjugated secondary antibody was added to all wells and plates were incubated for 1 hour at room temperature on an orbital shaker. The strip wells were then washed 5 times (1× wash buffer). The Substrate Solution was warmed to room temperature and 100 μL of Substrate Solution was added to each well, 5 20 min. The enzyme reaction was stopped by adding 100 μL of Stop Solution to each well. […] Data Process included: • Signal=Sample 450 nm Signal-10 ug/ml Reduced BSA Signal • Protein Carbonyl Conc. (PCC)=(Signal-Y intercept)/Slope • % Inh=(Max PCC-Sample PCC)/(Max PCC-Min PCC)×100 • Max PCC was obtained from the cells treated with H2O2 • Min PCC was obtained from none treated cells • IC50 was calculated using GraphPad Prism V5.0 software
(In an ELISA, binding on a coated surface is turned into a signal by an enzyme label.)

The IC50 is the midpoint of a concentration-inhibition curve. Read a high IC50 as a need for much substance. For the compound `Oc1ccc(O)cc1` [Hydroquinone], half-maximal inhibition in data set [1] (IC50) required 8.44 µg/mL (≈ 76.7 µM).

By inhibition is commonly meant the drop in the measured response relative to a control, in per cent. Low readings indicate a weak effect, high ones a strong effect. `O=C1O[C@H]([C@@H](O)CO)C(O)=C1O` [Vit. C, Vitamin C]: the Carbonylation inhibition in the data set on Hep G2 [HEPG2] cells (33 ug/ml) was 28.6%; in the data set on Hep G2 [HEPG2] cells (100 ug/ml) it was 64.6%; in the data set on Hep G2 [HEPG2] cells (300 ug/ml), 49.1% and 76.2%. In addition, 33 µg/mL produced 33.5% inhibition in the data set on Hep G2 [HEPG2] cells (Homo sapiens, HepG2, 4 h, 33 ug/ml). This compound showed an inhibition at 100 µg/mL in the data set on Hep G2 [HEPG2] cells (Homo sapiens, HepG2, 4 h, 100 ug/ml) of 46.1%.
